{
  "source": "patent US20190290478A1",
  "about": "“MEDICINAL HERBAL COMPOSITION FOR EYE APPLICATION” (priority 2018, published 2019)",
  "origin": "cited, not measured here",
  "key": {"[1]": {"test_system": "HCECs exposed to hyperosmotic stress"}, "murine dry eye": {"test_system": "murine dry eye", "details": "10 mM betaine compared with placebo on the 14, 21, 35 days"}},
  "data": [
    {"molecule": "C[N+](C)(C)CC(=O)O", "note": "[betaine]", "values": [
      {"measurement": "inflammatory response via TRPV1 pathway", "setting": "[1]", "value": "suppress inflammatory response"},
      {"measurement": "dry eye's symptom", "setting": "murine dry eye", "value": "significantly reduced"}
    ]}
  ]
}
